Results taken from patent publication US20250041311A1, “Compound For Treating or Preventing Vimentin-Mediated Diseases” (Aluda Pharmaceuticals, Inc., priority 2021, published 2025).
Where two headings read alike, the source gives them in different places.

How the values were obtained:
[1] = test system: PANC-1 cells; test: Transwell cell invasive growth assay; type: cell-based, human; details: different concentrations of C52, 24 h; more pronounced than in A549
Protocol: (§1) Cell invasive growth assay: Inoculate 1×10E4 cells suspended in 100 μL serum-free RPMI-1640 medium into each upper chamber of a […] Transwell pre-coated with Matrigel and added with DMSO or […] (Cat.3422, Corning, NY, USA). in different concentrations. Add 600 μL of RPMI-1640 containing 10% FBS to the bottom chamber of each well. Cells in transwell plates were cultured for 24 h. Cells on the upper surface were gently wiped with a moistened cotton swab, while cells that passed through the Matrigel to the lower surface of the membrane were fixed with paraformaldehyde and stained with 0.1% crystal violet. These cells on the lower surface were considered invasive and counted in 5 random fields under an inverted microscope. The number of invasive cells was counted by Image J software.

[2] = test system: A549 cells; test: Transwell cell invasive growth assay; type: cell-based, human; details: different concentrations of C52, 24 h
Protocol: as §1

[3] = test system: A549 cells; test: Exosome release from lung cancer cells (NTA, Western blot); type: cell-based, human
Protocol: (§2) Human non-small cell lung cancer A549 cells and human pancreatic cancer PANC-1 cells were purchased from the Chinese Academy of Sciences Stem Cell Bank (Shanghai, China). […] Purification, characterization, and analysis of exosomes: To purify exosomes from cell culture supernatants, cells were cultured for 3 days in DMEM medium supplemented with 10% exosome-free FBS prepared by ultracentrifugation of regular FBS at 120,000 g for 16 h. Cell culture supernatants were collected and centrifuged at 500 g for 5 min and then at 2,000 g for 20 min to remove dead cells and cell debris. Then, large vesicles were removed by centrifugation at 12,000 g for 30 minutes. Crude exosomes were pelleted by ultracentrifugation of the supernatant at 110,000 g for 70 min (Backman Ti70), washed with PBS and filtered (0.2 μm). The pellet was then suspended and ultracentrifuged again at 110,000 g for 70 minutes. All ultracentrifugations were performed at 4° C. The size and number of exosomes were analyzed using an LM10 nanoparticle tracking system (NanoSight) equipped with a blue laser (405 nm). Transmission electron microscope (TEM) observation: The morphology of exosomes prepared from the culture supernatant was observed by transmission electron microscope (TEM). Exosome pellets were fixed overnight at 4° C. in 2% glutaraldehyde. Load a drop of 10 μL of the exosome suspension onto the Formvar/Carbon-coated TEM copper grid and let it stand for 20 min. Drain excess fluid. Samples were fixed with 1% uranyl acetate for 5 min, washed 8 times with double distilled water, and dried under incandescent lamp for 10 min, then examined with Tecnai G2 Spirit Bio TWIN transmission electron microscope (FEI, Hillsboro, USA, working voltage 120 kV). […] The lysate was centrifuged to remove insoluble material.

[4] = test system: Treg cells; test: Syngeneic mouse CT26 tumor model (Treg activation and regeneration); type: in vivo; details: 100 mg/kg C52 oral QD
Protocol: BALB/c mice were subcutaneously inoculated with 1×10E6 CT26 cells. Mice were randomly assigned to each treatment group. The tumor size was measured with a caliper, and the tumor volume was calculated by the following formula: V=length×width 2×1/2. Tumor-bearing mice were orally administered with vehicle or 100 mg/kg […], QD. On the 13th day after tumor inoculation, vehicle- and […]-treated mice were given a single intraperitoneal injection of low-dose (50 mg/kg) cyclophosphamide (Sigma-Aldrich). Mice were euthanized before tumors reached 2.0 cm in longest dimension. Spleen and lymph node samples were collected for flow cytometric analysis.

[5] = test system: DSS-induced colitis mice; test: DSS-induced colitis mouse model; type: in vivo; details: 3 mg/kg C52 intragastric, 14 days
Protocol: Male BALB/c mice aged 6 to 7 weeks were given 2.8% DSS (Yisheng Biotechnology Co., Ltd., Shanghai) to induce ulcerative colitis through drinking water, and the model was established continuously for 7 days. From the first day of modeling, 3 mg/kg of […] or 300 mg/kg of the positive drug mesalamine (5'-aminosalicylic acid, 5-ASA) was given by intragastric administration, and continued after the modeling 7 days. The model group was given the same volume of solvent every day. The normal control group was fed routinely without any treatment. From the first day of modeling, the animals in each group were weighed every day, and the health condition of the mice, appearance of feces and hematochezia were recorded. When the body weight of the mice lost more than 25% during the modeling process, the animals were euthanized in time. After 14 days of administration of […], mice in each group were sacrificed by vertebral dislocation. The colon was harvested, photographed and its length measured. The colon near the rectum was cut and stored in 4% paraformaldehyde ([…] Biotechnology Co., Ltd., Wuhan) for HE staining to observe the histopathological changes of the colon. Mesenteric lymph nodes were collected for flow cytometric detection of the proportion of Treg cells.

[6] = test system: PANC-1 cells; test: Wound healing assay; type: cell-based, human; details: different concentrations of C52, 24 h, dose-dependent
Protocol: Wound healing assay: Cells were seeded in 6-well plates containing complete medium and cultured at 37° C. in a humidified air environment containing 5% CO2. […] Then, the cells were washed 3 times with PBS, and then incubated with serum-free RPMI-1640 medium containing different concentrations of […] for 24 h. The wound area and migrated cells within the wound area were photographed using a phase-contrast microscope. The wound area was measured using Image J software.

[7] = test system: PANC-1 cells; test: Exosome release from pancreatic cancer cells (NTA, Western blot); type: cell-based, human
Protocol: as §2

[8] = test system: Pseudovirus-2019-nCoV
[9] = test system: A549, AGS, U87, SMMC-7721, HUH7; test: Cancer cell growth in vitro; type: cell-based, human; details: any concentration, highest 10 μM
Protocol: (§3) Cell culture: Human non-small cell lung cancer A549 cells, human pancreatic cancer PANC-1 cells, human glioma U87 cells, human liver cancer HUH7 cells and SMMC-7721 cells, and human gastric cancer AGS cells were purchased from ATCC or Stem Cell Bank of Chinese Academy of Sciences (Shanghai, China). Cells were cultured in RPMI1640 medium containing 10% fetal bovine serum (Sigma, USA), 100 U penicillin and 100 μg/ml streptomycin (Gibco, USA) at 37° C. in a humidified atmosphere containing 5% CO2.

[10] = test system: HEK293T cells; test: Liposome-mediated pMAX-GFP transfection (endocytosis and endosomal trafficking); type: cell-based
[11] = test system: 84 selected human cancer-associated proteins in A549 cells; details: 3 μM C52 or 5 μM C52 for 48 h
Protocol: as §3
(§4) A total of 200 g of lysate protein was run on one Human XL Tumor Array (R&D Systems, Abingdon, UK). Followed the manufacturer's instructions exactly. The protein chip membrane was covered with plastic film and exposed to X-ray film for 8 minutes. Optical density on exposed X-ray film (hu.q, HQ-320XT, China) was quantified using a transmission mode scanner (EPSON, Beijing, China) and analyzed using Image J software.

[12] = test system: 84 selected human cancer-associated proteins in PANC-1 cells; details: 3 μM C52 or 5 μM C52 for 48 h
Protocol: as §3, §4

[13] = Western blot, 0.1, 1 and 10 μM C52, 48 h
[14] = Western blot, 0.1, 1 and 10 μM C52, 48 h, extracellular

## O=C(Nc1ccc(F)cc1)Nc1ccc(Nc2nc(/C=C/c3ccccc3)nc(N3CCOCC3)n2)cc1 [Compound C52]
[1]
  migratory ability (Transwell): hindered the migratory ability
[2]
  migratory ability (Transwell): hindered the migratory ability
[3]; 1 μM C52 vs DMSO
  exosomes in culture supernatant (nanoparticle tracking analysis): significantly reduced
[3]; [13]
  intracellular exosome levels: did not reduce
[3]; [14]
  content of exosomal markers (CD9, CD63, TSG101) in prepared exosome samples: significant reduction
[4]; BALB/c mice with CT26 tumors
  tumor growth vs vehicle-treated control mice: grow faster
[4]; day 29, 16 days after low-dose cyclophosphamide
  regeneration of Treg in lymph nodes: significantly increased
[5]; vs vehicle
  disease activity index: decreased
  histological score: very significant reduction
  intestinal bleeding: reduced
  shortened colon length: marked improvement
  weight loss: significantly less
[5]; vs vehicle control
  ratio of Treg to CD4+ T cells in the mesenteric lymph nodes: significantly higher
[6]
  closure rate of the gap size: significantly decreased
[7]; 1 μM C52 vs DMSO
  exosomes in culture supernatant (nanoparticle tracking analysis): significantly reduced
[7]; [13]
  intracellular exosome levels: did not reduce
[7]; [14]
  content of exosomal markers (CD9, CD63, TSG101) in prepared exosome samples: significant reduction
[8]
  inhibition of GFP signal increase: as strong as that by the positive control
[8]; read-out: IC50 of inhibition of pseudovirus infection
  IC50: < 50 nM
[9]
  effect on the growth of cancer cells: no effect
[10]; C52 added 4 h after transfection, at 0.316 μM
  inhibition of GFP expression (maximum): approximately 40%
[10]; C52 after transfection, read-out: EC50 for inhibition of endosomal trafficking
  EC50: 82 nM
[10]; C52 before transfection, read-out: EC50 for inhibition of endocytosis
  EC50: 98 nM
[10]; C52 during entire transfection period, read-out: EC50 for inhibition of the whole process
  EC50: 45 nM
[10]; C52 just before transfection only, at 0.316 μM
  inhibition of GFP: approximately 15%
[10]; C52 just before transfection only, at 10 μM
  inhibition of GFP (maximum): approximately 40%
[10]; C52 present throughout the transfection, at 0.316 μM
  maximum inhibition rate of GFP expression: about 50%
[11]
  effect on protein levels of vimentin and other signaling molecules involved in cell proliferation: little or no effect
[12]
  effect on protein levels of vimentin and other signaling molecules involved in cell proliferation: little or no effect
